Measurements taken from US11034952B2, “Aptamer methods and compositions” (The Trustees of Columbia University in the City of New York, priority 2013, dated 2021).

Experiments:
[1] = tested on: amino acid complexed with Cp*Rh(III); test: amino acid selectivity of Cp*Rh(III)-amino acid binding aptamers in sensor form; conditions: Cp*Rh(III) derivatization agent
Text: A series of aptamers were formed having an unbound nucleic acid pocket (see e.g., FIG. 7B-G).
An exemplary motif having a plurality of unpaired bases forming a pocket that binds a metal complex or an amino acid target molecule is shown in FIG. 8A. […]

[2] = read-out: Kd for glucose; cited from earlier work
[3] = oral phenylalanine load, Phe concentration in serum from capillary blood detected by aptamer; type: in vivo; conditions: 100 mg per kg body weight by mouth, 1 hr, FIG. 11B
Method: FIG. 11A-FIG. 11B is a chemical structure of PACp*Rh01 aptamer (SEQ ID NO: 53) reactive for Phe and cross-reactive for Trp and a scatter and line plot showing use thereof. FIG. 11A depicts the structure of an aptamer reactive for Phe and cross-reactive for Trp. FIG. 11B is a scatter and line plot showing aptamer detected Phe concentration (μM) as a function of time (hr) in serum samples from capillary blood of subject two and subject three having an oral load of 100 mg/kg at time zero.
This aptamer was used to detected Phe concentration (μM) as a function of time (hr) in serum samples from capillary blood of subject one and subject three that took 100 mg of phenylanine per kg body weight by mouth at time zero (see e.g., FIG. 11B). […] Every hour, blood was measured for the phenylalanine concentration. In a healthy subject, the enzymes that break down phenylalanine (e.g., phenylalanine hydroxylase (PAH) or BH4-cofactor, alone or together) are stimulated and break down phenylalanine resulting in decreased concentration (see 2-5 hr in FIG. 11B).

[4] = amino acid selectivity of HPheA104 aptamer sensor (RFU vs amino acid concentration); type: binding
Method: (§1) FIG. 12A-FIG. 12D is a series of aptamer structures and scatter and line plots showing use thereof.
This aptamer sensor mixture (not including Cp*Rh) was incubated with concentrations of amino acids (Phe, Trp, Tyr) and fluorescence (RFU) measured (see e.g., FIG. 12D).

[5] = tested on: phenylalanine complexed with Cu(II); test: amino acid selectivity of Cu(II) phenylalanine aptamers (RFU vs amino acid concentration); type: binding; conditions: for amino acid selectivity: Cu(II)
Method: as §1
This aptamer sensor mixture (not including Cp*Rh) was incubated with concentrations of amino acids (Phe, Tyr, Trp, Gly) and fluorescence (RFU) measured (see e.g., FIG. 12B).

Compound | amino acid selectivity [1] | other results
CTCTCGGGACGACGGGCCACGTTTTCCAGGTACTTTCTAAGGGGTCGTCCC (aptamer; listed as DNA, chemistry not fully specified) [AspaCp03, asparagine-Cp*Rh(III) complex aptamer] | Asn selective | 
CTCTCGGGACGACGACACGGGCGTCCCTTCACAAGGAGAGTGAGTCGTCCC (listed as DNA, chemistry not fully specified) [ARG01_Cp, arginine-Cp*Rh(III) complex aptamer] | Arg selective | 
CN(Cc1ccccc1B(O)O)Cc1c2ccccc2c(CN(C)Cc2ccccc2B(O)O)c2ccccc12 [bis-boronic receptor] |  | Kd [2]: ~500 µM
N[C@@H](Cc1ccccc1)C(=O)O [phenylalanine] |  | phenylalanine concentration in blood [3]: rises significantly
CTCTCGGGACGACGGCCCGATCTCAGAGTAGTCGTCCC (listed as DNA, chemistry not fully specified) [Tyr-Cp*Rh(38nt), tyrosine-Cp*Rh(III) complex aptamer] | Tyr selective | 
CTCTCGGGACGACGGGCTAGGCGTGGGTGTAAAGGCACAGGGGTCGTCCC (listed as DNA, chemistry not fully specified) [Gly-Cp sensor, glycine-Cp*Rh(III) complex aptamer] | Gly selective | 
CTCTCGGGACGACGCGGTGTGGATCCCTCGTAGAAGGAGTAGTGTCGTCCC (aptamer; listed as DNA, chemistry not fully specified) [LysCp05, lysine-Cp*Rh(III) complex aptamer] | Lys selective | 
CTCTCGGGACGACGGCGGGTGAATGCACACTTAGCAGAGAGTAGTCGTCCC (aptamer; listed as DNA, chemistry not fully specified) [GlutaCp02, glutamine-Cp*Rh(III) complex aptamer] | Gln selective | 
CTCTCGGGACGACCGCGGTAGTCTTAACCTAAAGCGGTGTCAGGTCGTCCC (listed as DNA, chemistry not fully specified) [HTrp03, tryptophan-Cp*Rh(III) complex aptamer] | Trp selective | 
CTCTCGGGACGACGGGTGGGAGCGATTCGAGCTACTCAGGTATGTCGTCCC (aptamer; listed as DNA, chemistry not fully specified) [LysCp*Rh18, lysine-Cp*Rh(III) complex aptamer] | Lys non-selective | 
CTCTCGGGACGACCGCGTTTCCCAAGAAAGCAAGTTTTGGTTGGTCGTCCC (aptamer; listed as DNA, chemistry not fully specified) [HPheA104] |  | amino acid selectivity [4]: Phe reactive; specificity among phenylalanine, tryptophan, tyrosine ([4]; sensor mixture not including Cp*Rh, FIG. 12D): Phe specificity is demonstrated
CTCTCGGGACGACGGGTCAGTTAGACCGTGAGGCTTCCGAATAGTCGTCCC (aptamer; listed as DNA, chemistry not fully specified) [GLYHW-Cp*Rh06, glycine-Cp*Rh(III) complex aptamer] | Gly non-specific | 
CTCTCGGGACGACGGACGCTAATCTTACAAGGGCGTAGTGTATGTCGTCCC (listed as DNA, chemistry not fully specified) [PACp*Rh01, phenylalanine-Cp*Rh(III) complex aptamer] | Phe cross-reactive Trp | 
CTCTCGGGACGACGGCGGGCGCGTATGTATATCATAAGGTGTAGTCGTCCC (aptamer; listed as DNA, chemistry not fully specified) [LeuCp17, leucine-Cp*Rh(III) complex aptamer] | selective for Leu over Ile | 
CTCTCGGGACGACGAGGCTGGATGCATTCGCCGGATGTTCGATGTCGTCCC (listed as DNA, chemistry not fully specified) [Cu(II)_Phe01, phenylalanine-Cu(II) complex aptamer] |  | amino acid selectivity [5]: Phe reactive; specificity among phenylalanine, tyrosine, tryptophan, glycine ([5]; sensor mixture not including Cp*Rh, FIG. 12B): Phe specificity is demonstrated
CTCTCGGGACGACAGGTCCCTTTCGTAGATCGAGGAAGTATGTCGTCCC (listed as DNA, chemistry not fully specified) [Cu(II)-Phe10_49 nt, phenylalanine-Cu(II) complex aptamer] |  | amino acid selectivity [5]: Phe cross-reactive Trp
CTCTCGGGACGACGGCGGGGAAACAGCTGCAAAATGTGGAGTAGTCGTCCC (Cp*Rh(III)-citrulline complex, further chemistry not given here) [CIT30N02_Cp*Rh, citrulline-Cp*Rh(III) complex aptamer] | citrulline non-selective | 
